From patent US10730885B1, “Coumarin derivatives” (KING SAUD UNIVERSITY, priority 2019, dated 2020)
Values after ≈ are worked out from the molar mass of the structure shown.

How the values were obtained:
[1] = DPPH microplate radical scavenging antioxidant assay; type: biochemical; conditions: DPPH, 30 min, mean ± SD (n = 3)
In short: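 Compounds, starting at 200 μg/mL in a dilution series, incubated with 0.2 mM methanolic DPPH for 30 min in the dark at 25° C. Absorbance at 515 nm converted to percent antioxidant activity; IC50 from concentration series, triplicate, mean±SD (n=3).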

trypsin = assay: Proteinase inhibitory activity (trypsin/casein); type: biochemical; conditions: for % Inhibition of proteinase activity: 250 μg/ml, mean ± SD (n = 3)
In short: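 Trypsin (0.06 mg) in 20 mM Tris-HCl pH 7.4 was preincubated 5 min with test sample (250 μg/ml solution), then 0.8% casein was added for 20 min. The reaction was stopped with perchloric acid, and supernatant absorbance was read at 280 nm after centrifugation. Percent inhibition relative to the uninhibited control was determined in triplicate.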

tested microorganisms = assay: MIC by two fold serial dilution, summary over the tested microorganisms; type: cell-based
Excerpt: (§1) The newly synthesized compounds were individually tested for their in vitro antimicrobial activity against the standard bacteria strains of American Type Culture Collection (ATCC), namely, Staphylococcus aureus ATCC 29213, Bacillus subtilis ATCC 6633, Bacillus megaterium ATCC 9885 (Gram-positive), Escherichia coli ATCC 2592 and Pseudomonas aeruginosa ATCC 27953 (Gram-negative). In addition, they were microbiologically tested against the locally isolated Saccharomyces cerevisiae (yeast) and the standard strain of Agricultural Research Service Culture Collection (NRRL) of the yeast like pathogenic fungus Candida albicans NRRL Y-477. The primary screening was carried out using the agar well diffusion method using nutrient agar (NA) medium and Sabourand dextrose agar (SDA) medium for pathological tested bacteria and yeast, respectively.
(§2) The bacteriostatic activity of the active compounds (having IZ>16 mm) was then evaluated using the two fold serial dilution technique. Two-fold serial dilutions of the tested compound solutions were prepared using the proper nutrient broth. The final concentration of the solutions were 1000, 500, 250 and 125 μg/ml. The tubes were then inoculated with the test organisms, grown in their suitable broth at 37° C. for 24 hours for tested microorganisms. (1×10^8 CFU/ml for bacteria and 1×10^6 CFU/ml of yeast), each 5 ml received 0.1 ml of the above inoculum and incubated at 37° C. for 24 h. The lowest concentration showing no growth was taken as the minimum inhibitory concentration (MIC).

[2] = test system: formaldehyde-induced paw oedema; assay: Formaldehyde-induced rat paw oedema; type: in vivo; conditions: 2.5 mg/kg orally
Procedure: Testing was performed to determine formaldehyde-induced rat paw oedema (edema). For the formaldehyde-induced rat paw oedema (edema) test, female Wister albino rats (150-175 g) were used for determination of the anti-inflammatory activities. The rats were obtained from the animal house colony of the National Organization for Drug Control and Research (NODCAR), Egypt. The animals were kept in standard plastic cages in an air conditioned room at 22±3° C., 55±5% humidity and supplied with standard laboratory diet and water ad libitum. All animal experimental procedures were carried out according to the Ethics Committee of the National Research Centre, Cairo, Egypt and followed the guidelines of the National Institutes of Health, Guide for Care and Use of Laboratory Animals (1985).
The percentage protection against inflammation was calculated by using following formula:
[formula] where Vc is the mean percentage increase in paw volume in the control and Vd is the mean percentage increase in paw volume after injection of the test compound. Values were expressed as mean±standard error (S.E.). Comparisons between mean values were carried out using two-way analysis of variance (ANOVA), followed by Tukey Kramer multiple comparisons test for all acute toxicity study tests. […] was considered significant. Graph pad prism software (version 6) was used to carry out all statistical tests.

[3] = test system: Pseudomonas aeruginosa ATCC 27953; assay: MIC by two fold serial dilution technique; type: cell-based; conditions: ATCC27953, P. aeruginosa, read-out: Minimal Inhibitory Concentration (MIC) PA
Excerpt: as §1, §2

[4] = test system: Candida albicans NRRL Y-477; assay: MIC by two fold serial dilution technique; type: cell-based; conditions: NRRLY477, C. albicans, read-out: Minimal Inhibitory Concentration (MIC) CA
Excerpt: as §1, §2

[5] = test system: Saccharomyces cerevisiae (local isolate); assay: MIC by two fold serial dilution technique; type: cell-based; conditions: read-out: Minimal Inhibitory Concentration (MIC) SC
Excerpt: as §1, §2

[6] = test system: Bacillus megaterium ATCC 9885; assay: MIC by two fold serial dilution technique; type: cell-based; conditions: Priestia megaterium, ATCC9885; B. megaterium; read-out: Minimal Inhibitory Concentration (MIC) BM
Excerpt: as §1, §2

[7] = test system: Escherichia coli ATCC 2592; assay: MIC by two fold serial dilution technique; type: cell-based; conditions: ATCC2592, E. coli, read-out: Minimal Inhibitory Concentration (MIC) EC
Excerpt: as §1, §2

[8] = test system: Staphylococcus aureus ATCC 29213; assay: MIC by two fold serial dilution technique; type: cell-based; conditions: ATCC29213, S. aureus, read-out: Minimal Inhibitory Concentration (MIC) SA
Excerpt: as §1, §2

[9] = test system: Bacillus subtilis ATCC 6633; assay: MIC by two fold serial dilution technique; type: cell-based; conditions: ATCC6633, B. subtilis, read-out: Minimal Inhibitory Concentration (MIC) BS
Excerpt: as §1, §2

[10] = test system: Escherichia coli ATCC 2592; assay: Agar well diffusion, primary antimicrobial screening; type: cell-based; conditions: Escherichia coli, ATCC2592; E. coli ATCC 2592; 100 μL of 10 mg/ml in DMSO, 24 h; read-out: Inhibition Diameter Zone EC
In short: (§3)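 Seeded agar (bacteria 1×10^8 CFU/mL on nutrient agar; yeasts 1×10^6 CFU/ml on Sabouraud dextrose agar), 10 mm wells loaded with compound at 10 mg/ml in DMSO. Incubated 24 h at 37° C. Inhibition zone diameter (mm), mean of triplicate; DMSO negative control.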

[11] = test system: Pseudomonas aeruginosa ATCC 27953; assay: as above; type: cell-based; conditions: Pseudomonas aeruginosa, ATCC27953; P. aeruginosa ATCC 27953; 100 μL of 10 mg/ml in DMSO, 24 h; read-out: Inhibition Diameter Zone PA
In short: as §3

[12] = test system: Bacillus subtilis ATCC 6633; assay: as above; type: cell-based; conditions: Bacillus subtilis, ATCC6633; B. subtilis ATCC 6633; 100 μL of 10 mg/ml in DMSO, 24 h; read-out: Inhibition Diameter Zone BS
In short: as §3

[13] = test system: Bacillus megaterium ATCC 9885; assay: as above; type: cell-based; conditions: Priestia megaterium, ATCC9885; B. megaterium ATCC 9885; 100 μL of 10 mg/ml in DMSO, 24 h; read-out: Inhibition Diameter Zone BM
In short: as §3

[14] = test system: Candida albicans NRRL Y-477; assay: as above; type: cell-based; conditions: Candida albicans, NRRLY477; C. albicans NRRL Y-477; 100 μL of 10 mg/ml in DMSO, 24 h; read-out: Inhibition Diameter Zone CA
In short: as §3

SMILES	IC50 [1]	% Inhibition of proteinase activity (trypsin) [%]	MIC (tested microorganisms; against gram-positive bacteria) [µg/mL]	melting point [°C]	in vivo anti-inflammatory activity [2]	in vitro anti-proteinase activity compared with aspirin (trypsin)	MIC (tested microorganisms; against most of the tested microorganisms) [µg/mL]	MIC [3] [µg/mL]	MIC [4] [µg/mL]	MIC [5] [µg/mL]	MIC [6] [µg/mL]	MIC [7] [µg/mL]	MIC [8] [µg/mL]	MIC [9] [µg/mL]	zone of inhibition at 10000 µg/mL [10] [mm]	zone of inhibition at 10000 µg/mL [11] [mm]	zone of inhibition at 10000 µg/mL [12] [mm]	zone of inhibition at 10000 µg/mL [13] [mm]	zone of inhibition at 10000 µg/mL [14] [mm]
Cc1ccc2oc(=O)c3c(c2c1)OC(N)=C(C#N)C3c1ccc([N+](=O)[O-])cc1 (racemic) [Compound 5a, (±)-2-amino-9-methyl-4-(4-nitrophenyl)-5-oxo-4H,5H-pyrano[3,2-c]chromene-3-carbonitrile]	— ((—): inactive (IC50 > 200 μg/mL))	17.38 ± 1.63	500 to 1000 (≈ 1330 to 2660 µM)	259 to 261															
Cc1ccc2oc(=O)c3c(c2c1)OC(N)=C(C#N)C3c1ccco1 (racemic) [Compound 5b, (±)-2-amino-4-(furan-2-yl)-9-methyl-5-oxo-4H,5H-pyrano[3,2-c]chromene-3-carbonitrile]	— ((—): inactive (IC50 > 200 μg/mL))	74.68±3.01	500 to 1000 (≈ 1560 to 3120 µM)	251 to 253	significant protection against inflammation	more potent													
Cc1ccc2oc(=O)c3c(c2c1)OC(N=Cc1ccccc1)=C(C#N)C3c1ccc([N+](=O)[O-])cc1 (racemic) [Compound 8a, (±)-2-(benzylideneamino)-9-methyl-4-(4-nitrophenyl)-5-oxo-4H,5H-pyrano[3,2-c]chromene-3-carbonitrile]	— ((—): inactive (IC50 > 200 μg/mL))			208 to 209			250 to 500 (≈ 539 to 1080 µM)	500 (≈ 1080 µM)	500 (≈ 1080 µM)	500 (≈ 1080 µM)	500 (≈ 1080 µM)								
COc1cc(C=NC2=C(C#N)C(c3ccc([N+](=O)[O-])cc3)c3c(c4cc(C)ccc4oc3=O)O2)cc(OC)c1OC (racemic) [Compound 8c, (±)-9-methyl-4-(4-nitrophenyl)-5-oxo-2-((3,4,5-trimethoxybenzylidene)amino)-4H,5H-pyrano[3,2-c]chromene-3-carbonitrile]	— ((—): inactive (IC50 > 200 μg/mL))	68.5±6.23		221 to 223		more potent		500 (≈ 903 µM)	500 (≈ 903 µM)	500 (≈ 903 µM)	500 (≈ 903 µM)	500 (≈ 903 µM)	500 (≈ 903 µM)	500 (≈ 903 µM)					
COc1cc(C=NC2=C(C#N)C(c3ccco3)c3c(c4cc(C)ccc4oc3=O)O2)cc(OC)c1OC (racemic) [Compound 8d, (±)-4-(furan-2-yl)-9-methyl-5-oxo-2-((3,4,5-trimethoxybenzylidene)amino)-4H,5H-pyrano[3,2-c]chromene-3-carbonitrile]	82.92 ± 3.30 µg/mL (≈ 166 µM)	43.4 ± 1.52		248 to 250		as potent			1000 (≈ 2010 µM)	1000 (≈ 2010 µM)			1000 (≈ 2010 µM)		< 15	< 15	< 15	< 15	
Cc1ccc2oc(=O)c3c(c2c1)OC(N=Cc1ccc(Cl)cc1Cl)=C(C#N)C3c1ccc([N+](=O)[O-])cc1 (racemic) [Compound 8e, (±)-2-((2,4-dichlorobenzylidene)amino)-9-methyl-4-(4-nitrophenyl)-5-oxo-4H,5H-pyrano[3,2-c]chromene-3-carbonitrile]	— ((—): inactive (IC50 > 200 μg/mL))	45.78 ± 1.62		236 to 238		as potent			500 (≈ 939 µM)	500 (≈ 939 µM)									20
Cc1ccc2oc(=O)c3c(c2c1)OC(N=Cc1ccc(Cl)cc1Cl)=C(C#N)C3c1ccco1 (racemic) [Compound 8f, (±)-2-((2,4-dichlorobenzylidene)amino)-4-(furan-2-yl)-9-methyl-5-oxo-4H,5H-pyrano[3,2-c]chromene-3-carbonitrile]	— ((—): inactive (IC50 > 200 μg/mL))	26.83 ± 5.33	500 to 1000 (≈ 1050 to 2100 µM)	> 300				1000 (≈ 2100 µM)	500 (≈ 1050 µM)	500 (≈ 1050 µM)	1000 (≈ 2100 µM)	1000 (≈ 2100 µM)	500 (≈ 1050 µM)	500 (≈ 1050 µM)	20			20	
